Where two headings read alike, the source gives them in different places.
Legend:
[1] = molecular target: phosphorylated PDK1 (Homo sapiens (Human), UniProt O15530); test: PDK1 kinase assay (coupled PDK1/AKT/FAM-crosstide, IMAP); assay type: biochemical; details: 0.5 nM phosphorylated PDK1, 24 μM ATP; read-out: Inhibition of phospo-PDK1 in vitro IC50
[2] = system: phospho-akt (Thr308); test: phospho-akt (Thr308) MSD ELISA in PC-3 cells; assay type: cell-based; details: Homo sapiens; for EC50: PC-3, 2 h; for inhibition at 1 µM / inhibition at 10 µM: read-out: Percent Inhibition of phospho-Akt (308) By MSD ELISA
Experimental: PC-3 cells were harvested by trypsin and counted. Cells were plated in coated 96-well flat bottom plates (plate 15,000 cells/well in 100 ul growth media (10% FBS, 1× pen-strep) an place in an incubator overnight.
Subject inhibitors were stocked at 50 mM, then diluted to 30 mM (4.8 μl cpd plus […] DMSO) in 100% DMSO. Three-fold dilutions were performed from 30 mM stock. (4 μl into 8 ul 100% DMSO). Aliquots of 1.0 μl of inhibitor solution were transferred into SF Medium (using deep well block).
Control wells were prepared as follows. For DMSO high controls, 1.0 μl of 100% DMSO was added into 1.0 ml SF.
MSD plates were blocked for 1 hour by adding 150 μl of Blocking Solution (3% BSA) to each well. The MSD plates were washed 4× with TBST, and 50 μl lysates were transferred to MSD plate and place on plate shaker shake at 4 degrees O/N, light shaking (speed 3.5). The plate was washed 4× with TBST.
25 μl of Ab detection solution was added to each well. The plate was sealed and incubated 1 hr RT, light shaking (speed 3.5). The plate was washed 4 times with TBST. 150 μl of Read Buffer was added (5 mls 4×MSD Read Buffer+15 mls water). Finally the plate was read immediately on the MSD plate reader.

[3] = PC-3 cells, 2 hours, no serum, read-out: Inhibition of P308 Akt in cells using MSD EC50
[4] = PC-3 cells, 2 hours, no serum, read-out: Reduction of Cellular Levels of Akt p308 By MSD ELISA (EC50 μM)
[5] = read-out: Inhibition of P308 Akt in cells using MSD EC50
[6] = read-out: Reduction of Cellular Levels of Akt p308 By MSD ELISA (EC50 μM)

phosphorylated PDK1, sequence (O15530 51-360): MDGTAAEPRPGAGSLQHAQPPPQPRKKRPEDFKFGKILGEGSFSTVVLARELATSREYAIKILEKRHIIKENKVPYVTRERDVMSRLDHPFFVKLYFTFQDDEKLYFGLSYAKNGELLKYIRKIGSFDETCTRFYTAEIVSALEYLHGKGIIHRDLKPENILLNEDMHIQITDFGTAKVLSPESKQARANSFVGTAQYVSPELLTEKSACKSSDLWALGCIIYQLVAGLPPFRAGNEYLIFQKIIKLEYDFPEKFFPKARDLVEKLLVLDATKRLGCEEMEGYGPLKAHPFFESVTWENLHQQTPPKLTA

SMILES | IC50 [1] [µM] | EC50 [2, 3] [µM] | inhibition at 1 µM ([2]; PC-3 cells) [%] | inhibition at 10 µM ([2]; PC-3 cells) [%] | EC50 [2, 4] [µM] | EC50 [2, 5] [µM] | EC50 [2, 6] [µM]
O=C1Nc2cc(/C=C/CNC(=O)c3cc(Cl)cn(Cc4cc(F)c(F)c(F)c4)c3=O)ccc2/C1=C/c1ncc[nH]1 [Cpd 197] | < 0.5 | < 1 | – | – | – | – | –
CC(=O)Oc1ccc(C(COc2ccc3[nH]c(=O)[nH]c3c2)NC(=O)c2cccn(Cc3cc(F)c(F)c(F)c3)c2=O)cc1 (stereo not drawn) [Cpd 189] | < 0.5 | < 1 | – | – | – | – | –
Nc1ncccc1-c1ccc(CNC(=O)c2cccn(Cc3ccc(F)c(F)c3)c2=O)s1 [Cpd 97] | < 0.5 | 1 to 5 | – | – | – | – | –
O=C(NCc1ccc(-c2c[nH]c3nccc(Cl)c23)s1)c1cccn(Cc2ccc(F)c(F)c2)c1=O [Cpd 55] | < 0.5 | 1 to 5 | – | – | – | – | –
O=C(NCc1cccc(-c2n[nH]c3ncccc23)c1)c1cccn(Cc2ccc(F)c(F)c2)c1=O [Cpd 6] | < 0.5 | 1 to 5 | 25 to 75 | 25 to 75 | – | – | –
O=C(NCc1cccc(-c2c[nH]c3ncccc23)n1)c1cccn(Cc2ccc(F)c(F)c2)c1=O [Cpd 4] | < 0.5 | 1 to 5 | 25 to 75 | > 75 | – | – | –
COC(=O)[C@H](COc1ccc2[nH]c(=O)[nH]c2c1)NC(=O)c1cccn(Cc2cc(F)c(F)c(F)c2)c1=O [Cpd 153] | < 0.5 | < 1 | – | – | – | – | –
COCCNC(=O)C[C@@H](NC(=O)c1cccn(Cc2ccc(F)c(F)c2)c1=O)c1ccc(-c2c[nH]c3ncccc23)s1 [Cpd 34] | < 0.5 | 1 to 5 | – | – | 1 to 5 | – | –
CN(C)C(=O)c1cnc2[nH]cc(-c3cccc(CNC(=O)c4cccn(Cc5ccc(F)c(F)c5)c4=O)c3)c2c1 [Cpd 27] | < 0.5 | < 1 | – | – | < 1 | – | –
O=C(NCc1cc(OCCN2CCOCC2)cc(-c2c[nH]c3ncccc23)c1)c1cccn(Cc2ccc(F)c(F)c2)c1=O [Cpd 56] | < 0.5 | 1 to 5 | – | – | – | – | –
O=C(NCc1cccc(-c2c[nH]c3ncc(Br)cc23)c1)c1cccn(Cc2ccc(F)c(F)c2)c1=O [Cpd 330] | < 0.5 | 1 to 5 | – | – | – | – | –
O=C(Cc1cccc(C2CNc3ncccc32)c1)Nc1cccn(Cc2ccc(F)c(F)c2)c1=O (stereo not drawn) [Cpd 44] | < 0.5 | 1 to 5 | – | – | – | – | –
C[Si](C)(C)CCOCn1nc(NC(=O)c2cccn(Cc3ccc(F)c(F)c3)c2=O)c2cc(-c3c[nH]c4ncccc34)ccc21 [Cpd 36] | < 0.5 | – | – | – | – | > 5 | > 5
O=C1CCc2c(ncnc2-c2cccc(CNC(=O)c3cccn(Cc4ccc(F)c(F)c4)c3=O)c2)N1 [Cpd 240] | > 10 | – | < 25 | < 25 | 1 to 5 | – | –
O=C1Nc2cc(/C=C/CNC(=O)c3cccn(Cc4cc(F)c(F)c(F)c4)c3=O)ccc2/C1=C\c1ccc(O)cc1 [Cpd 201] | < 0.5 | < 1 | – | – | – | – | –
O=C1Nc2cc(/C=C/CNC(=O)c3cccn(Cc4ccc(F)c(F)c4)c3=O)ccc2/C1=C/c1ncc[nH]1 [Cpd 199] | < 0.5 | < 1 | – | – | – | – | –
O=C(NC(COc1ccc2[nH]c(=O)[nH]c2c1)c1ccc(O)cc1)c1cccn(Cc2cc(F)c(F)c(F)c2)c1=O (stereo not drawn) [Cpd 188] | < 0.5 | 1 to 5 | – | – | – | – | –
CCCNC(=O)C[C@@H](NC(=O)c1cccn(Cc2ccc(F)c(F)c2)c1=O)c1ccc(-c2c[nH]c3ncccc23)s1 [Cpd 32] | < 0.5 | – | – | – | – | 1 to 5 | 1 to 5
O=C(NCc1cc(O)cc(-c2c[nH]c3ncccc23)c1)c1cccn(Cc2ccc(F)c(F)c2)c1=O [Cpd 49] | < 0.5 | 1 to 5 | – | – | – | – | –
O=C(Nc1cccc2ccc(-c3c[nH]c4ncccc34)cc12)c1cccn(Cc2ccc(F)c(F)c2)c1=O [Cpd 35] | < 0.5 | > 5 | – | – | < 1 | – | –
